Measurements: US20230407374A1, “SYSTEMS AND METHODS FOR HIGH THROUGHPUT SCREENING OF MOLECULAR INTERACTIONS” (priority 2020, published 2023)

Target: short 8-mer DNA zipper (Z1: ATGTCCAT) target interaction
Experiment: nanoswitch-FRET dose response with blocking oligonucleotides
Format: binding
Conditions: 1 nM nanoswitches with Z1 target interaction
From the text: DNA nanoswitches were created as previously described (Koussa et al. 2015, Hansen et al. 2017). Briefly, circular ssDNA from the 7,249-nt bacteriophage M13 (New England BioLabs) was linearized by enzymatic cleavage of a single site using BtscI (New England BioLabs) and a site-specific oligonucleotide. This ssDNA scaffold was mixed with a molar excess of tiling 60-mer oligonucleotides (10:1), excluding the complementary regions for detection oligonucleotide and target interaction partners, and subjected to a temperature ramp from 90 to 20° C. at 1° C.−min-1. The detection oligonucleotides were added at 55° C. during the hybridization protocol. […]
The FRET from nanoswitches was quantified using a BioTek Neo plate reader. Specifically, the FRET emission was measured at 665 nm from […] and the non-FRET emission at 555 nm from […] using the built in monochromator-based system. The FRET ratio was then calculated as the ratio of the signal at 665 nm over 555 nm. For nanoswitch concentrations 2 nM and above, to reduce background, excitation at 540 nm was used instead and the FRET emission was measured at 680 nm.
FRET was measured in the presence of increasing concentrations of 7-mer (TGGACAT) or 8-mer ([…]) blocking oligonucleotides that bind to one side of the zipper. […]

Row | Sequence | Ki (95% CI by bootstrapping (150 nM, 430 nM)) | Ki (95% CI by bootstrapping (1.2 μM, 3.8 μM))
1 | ATGGACAT [8-mer] | 0.26 µM | 
2 | TGGACAT [7-mer] |  | 2 µM
